Source: PubChem BioAssay AID1259407 (Chemical Carcinogenesis Research Information System (CCRIS), 2018)
Active and inactive are the calls of the source. How the calls were made is not given here.

System: CCRIS mutagenicity, Ames/micronucleus/aberration tests
Experiment: CCRIS mutagenicity studies
Conditions: Test System: AMES SALMONELLA TYPHIMURIUM
[1] = Strain/Indicator: TA98, Metabolic Activation: NONE, Method: STANDARD PLATE
[2] = Strain/Indicator: TA100, Metabolic Activation: NONE, Method: STANDARD PLATE

Oc1ccc2cc(SSc3ccc4cc(O)ccc4c3)ccc2c1
mutagenic call (Strain/Indicator: TA97, Metabolic Activation: HAMSTER, LIVER, S-9, AROCLOR 1254 (10 OR 30%), Method: PREINCUBATION): inactive; negative | mutagenic call (Strain/Indicator: TA97, Metabolic Activation: NONE, Method: PREINCUBATION): inactive; negative | mutagenic call (Strain/Indicator: TA97, Metabolic Activation: RAT, LIVER, S-9, AROCLOR 1254 (10 OR 30%), Method: PREINCUBATION): inactive; negative | mutagenic call (Strain/Indicator: TA98, Metabolic Activation: HAMSTER, LIVER, S-9, AROCLOR 1254 (10 OR 30%), Method: PREINCUBATION): inactive; negative | mutagenic call (Strain/Indicator: TA98, Metabolic Activation: NONE, Method: PREINCUBATION): inactive; negative | mutagenic call (Strain/Indicator: TA98, Metabolic Activation: RAT, LIVER, S-9, AROCLOR 1254 (5 OR 30%), Method: PREINCUBATION): inactive; negative | mutagenic call (Strain/Indicator: TA98, Metabolic Activation: RAT, LIVER, S-9, AROCLOR 1254 (10%), Method: PREINCUBATION): inactive; negative | mutagenic call (Strain/Indicator: TA100, Metabolic Activation: HAMSTER, LIVER, S-9, AROCLOR 1254 (10 OR 30%), Method: PREINCUBATION): inactive; negative | mutagenic call (Strain/Indicator: TA100, Metabolic Activation: NONE, Method: PREINCUBATION): inactive; negative | mutagenic call (Strain/Indicator: TA100, Metabolic Activation: RAT, LIVER, S-9, AROCLOR 1254 (5 OR 30%), Method: PREINCUBATION): inactive; negative | mutagenic call (Strain/Indicator: TA100, Metabolic Activation: RAT, LIVER, S-9, AROCLOR 1254 (10%), Method: PREINCUBATION): inactive; negative | mutagenic call (Strain/Indicator: TA102, Metabolic Activation: HAMSTER, LIVER, S-9, AROCLOR 1254 (10 OR 30%), Method: PREINCUBATION): inactive; negative | mutagenic call (Strain/Indicator: TA102, Metabolic Activation: NONE, Method: PREINCUBATION): inactive; negative | mutagenic call (Strain/Indicator: TA102, Metabolic Activation: RAT, LIVER, S-9, AROCLOR 1254 (10 OR 30%), Method: PREINCUBATION): inactive; negative | mutagenic call (Strain/Indicator: TA1535, Metabolic Activation: RAT, LIVER, S-9, AROCLOR 1254 (5, 10 OR 30%), Method: PREINCUBATION): inactive; negative | mutagenic call (Strain/Indicator: TA1538, Metabolic Activation: RAT, LIVER, S-9, AROCLOR 1254 (5, 10 OR 30%), Method: PREINCUBATION): inactive; negative

O=[N+]([O-])c1cccc2c1ccc1cccc([N+](=O)[O-])c12
mutagenic call (Strain/Indicator: TA98(1,8-DNP6), Metabolic Activation: NONE, Method: STANDARD PLATE): active; positive | mutagenic call (Strain/Indicator: TA98(NR), Metabolic Activation: NONE, Method: STANDARD PLATE): active; positive | mutagenic call [1]: active; positive | mutagenic call [2]: active; positive | mutagenic call (Strain/Indicator: YG1021, Metabolic Activation: NONE, Method: STANDARD PLATE): active; positive | mutagenic call (Strain/Indicator: YG1024, Metabolic Activation: NONE, Method: STANDARD PLATE): active; positive | mutagenic call (Strain/Indicator: YG1026, Metabolic Activation: NONE, Method: STANDARD PLATE): active; positive | mutagenic call (Strain/Indicator: YG1029, Metabolic Activation: NONE, Method: STANDARD PLATE): active; positive

COc1ccc2oc3cc(O)cc(O)c3c(=O)c2c1
mutagenic call (Strain/Indicator: TA97, Metabolic Activation: RAT, LIVER, S-9, PHENOBARBITAL AND 5,6-BENZOFLAVONE, Method: PREINCUBATION): active; positive | mutagenic call (Strain/Indicator: TA98, Metabolic Activation: RAT, LIVER, S-9, PHENOBARBITAL AND 5,6-BENZOFLAVONE, Method: PREINCUBATION): active; positive | mutagenic call (Strain/Indicator: TA100, Metabolic Activation: RAT, LIVER, S-9, PHENOBARBITAL AND 5,6-BENZOFLAVONE, Method: PREINCUBATION): active; positive | mutagenic call (Strain/Indicator: TA2637, Metabolic Activation: RAT, LIVER, S-9, PHENOBARBITAL AND 5,6-BENZOFLAVONE, Method: PREINCUBATION): active; positive

Nc1ccc2cc(S(=O)(=O)O)c(N=Nc3ccc(N=Nc4ccc(NCCO)cc4NCCO)cc3OCCO)c(O)c2c1
mutagenic call [1]: inactive; negative | mutagenic call (Strain/Indicator: TA98, Metabolic Activation: RAT, LIVER, S-9, AROCLOR 1254, Method: STANDARD PLATE): active; positive | mutagenic call [2]: inactive; negative | mutagenic call (Strain/Indicator: TA100, Metabolic Activation: RAT, LIVER, S-9, AROCLOR 1254, Method: STANDARD PLATE): inactive; negative | mutagenic call (Strain/Indicator: TA1538, Metabolic Activation: NONE, Method: STANDARD PLATE): inactive; negative | mutagenic call (Strain/Indicator: TA1538, Metabolic Activation: RAT, LIVER, S-9, AROCLOR 1254, Method: STANDARD PLATE): active; positive

Nc1cccc2c1ccc1ccccc12
mutagenic call (Strain/Indicator: TA98, Metabolic Activation: RAT, LIVER, S-9, AROCLOR 1254 (2 OR 4%), Method: STANDARD PLATE): active; positive | mutagenic call (Strain/Indicator: TA100, Metabolic Activation: RAT, LIVER, S-9, AROCLOR 1254 (2%), Method: STANDARD PLATE): active; positive | mutagenic call (Strain/Indicator: TA1535, Metabolic Activation: RAT, LIVER, S-9, AROCLOR 1254 (2%), Method: STANDARD PLATE): inactive; negative | mutagenic call (Strain/Indicator: TA1537, Metabolic Activation: RAT, LIVER, S-9, AROCLOR 1254 (2%), Method: STANDARD PLATE): active; positive
